According to PubChem BioAssay (NCI):
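Grown in 96-well plates, cells were treated for 48 hours with each compound at five concentrations. Insufficient inhibition: endpoint recorded as highest concentration tested. At the GI50, growth is halved. TGI marks complete inhibition of growth.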

Experiments:
Assay in all cases: growth of human tumour cells (NCI), 48 h
[1] = tested on: T-47D breast
[2] = tested on: CCRF-CEM leukemia
[3] = tested on: PC-3 prostate
[4] = tested on: HCT-116 colon
[5] = tested on: SK-OV-3 ovarian
[6] = tested on: LOX IMVI melanoma
[7] = tested on: M14 melanoma
[8] = tested on: MCF7 breast
[9] = tested on: K-562 leukemia
[10] = tested on: NCI-H460 lung
[11] = tested on: OVCAR-4 ovarian
[12] = tested on: U251 CNS
[13] = tested on: NCI-H226 lung
[14] = tested on: BT-549 breast
[15] = tested on: UACC-62 melanoma
[16] = tested on: CAKI-1 renal
[17] = tested on: RXF 393 renal
[18] = tested on: MOLT-4 leukemia
[19] = tested on: HCC-2998 colon
[20] = tested on: SK-MEL-28 melanoma
[21] = tested on: ACHN renal
[22] = tested on: MDA-MB-468 breast
[23] = tested on: SF-539 CNS
[24] = tested on: IGROV1 ovarian
[25] = tested on: DU-145 prostate
[26] = tested on: HOP-92 NSCLC
[27] = tested on: TK-10 renal
[28] = tested on: NCI-H522 lung
[29] = tested on: HT29 colon
[30] = tested on: SN12C renal
[31] = tested on: SNB-19 CNS
[32] = tested on: OVCAR-5 ovarian
[33] = tested on: KM12 colon
[34] = tested on: HCT-15 colon
[35] = tested on: SF-295 CNS
[36] = tested on: MALME-3M melanoma
[37] = tested on: SF-268 CNS
[38] = tested on: A549 NSCLC
[39] = tested on: SR leukemia
[40] = tested on: A498 renal
[41] = tested on: COLO 205 colon
[42] = tested on: EKVX NSCLC
[43] = tested on: HOP-62 NSCLC
[44] = tested on: MDA-MB-231 breast
[45] = tested on: NCI-H23 lung
[46] = tested on: SK-MEL-2 melanoma
[47] = tested on: RPMI-8226 leukemia
[48] = tested on: SK-MEL-5 melanoma
[49] = tested on: SNB-75 CNS
[50] = tested on: HL-60(TB) leukemia
[51] = tested on: HS 578T breast
[52] = tested on: UO-31 renal
[53] = tested on: OVCAR-3 ovarian
[54] = tested on: 786-0 renal
[55] = tested on: SW-620 colon
[56] = tested on: OVCAR-8 ovarian
[57] = tested on: MDA-MB-435
[58] = tested on: UACC-257 melanoma

## N#Cc1c(-c2ccc(Br)cc2)nc2n[nH]c(-c3ccc(Br)cc3)c2c1-c1ccc(C(F)(F)F)cc1
[1]
  GI50: 3.39 µM
  TGI: 93.9 µM
[2]
  GI50: 3.05 µM
  TGI: 13 µM
[3]
  GI50: 1.95 µM
  TGI: 12.4 µM
[4]
  GI50: 3.42 µM
  TGI: 73.2 µM
[5]
  GI50: 14.2 µM
  TGI: 69.1 µM
[6]
  GI50: 3.45 µM
  TGI: > 100 µM
[7]
  GI50: 5.24 µM
  TGI: 23.7 µM
[8]
  GI50: 3.13 µM
  TGI: 24 µM
[9]
  GI50: 2.61 µM
  TGI: 10.3 µM
[10]
  GI50: 3.62 µM
  TGI: 19.4 µM
[11]
  GI50: 4.02 µM
  TGI: 25.6 µM
[12]
  GI50: 6.23 µM
  TGI: 62.4 µM
[13]
  GI50: 3.07 µM
  TGI: 18 µM
[14]
  GI50: 2.56 µM
  TGI: 8.18 µM
[15]
  GI50: 2.61 µM
  TGI: 13.3 µM
[16]
  GI50: 4.01 µM
  TGI: 24.2 µM
[17]
  GI50: 6.93 µM
  TGI: 28.4 µM
[18]
  GI50: 1.89 µM
  TGI: 6.02 µM
[19]
  GI50: 5.27 µM
  TGI: 27.1 µM
[20]
  GI50: 6.79 µM
  TGI: 26.3 µM
[21]
  GI50: 3.26 µM
  TGI: 14.3 µM
[22]
  GI50: 3.44 µM
  TGI: 15.5 µM
[23]
  GI50: 5.35 µM
  TGI: 22.2 µM
[24]
  GI50: 2.71 µM
  TGI: 15.4 µM
[25]
  GI50: 5.45 µM
  TGI: > 100 µM
[26]
  GI50: 1.65 µM
  TGI: 4.73 µM
[27]
  GI50: 19.7 µM
  TGI: 58.3 µM
[28]
  GI50: 3.78 µM
  TGI: 36.9 µM
[29]
  GI50: 3.84 µM
  TGI: 35.7 µM
[30]
  GI50: 3.3 µM
  TGI: 15.8 µM
[31]
  GI50: 4.53 µM
  TGI: 33.3 µM
[32]
  GI50: 7.58 µM
  TGI: 26.9 µM
[33]
  GI50: 4.4 µM
  TGI: 26.8 µM
[34]
  GI50: 3.29 µM
  TGI: 19.1 µM
[35]
  GI50: 2.61 µM
  TGI: 10.1 µM
[36]
  GI50: 2.34 µM
  TGI: 6.47 µM
[37]
  GI50: 7.91 µM
  TGI: > 100 µM
[38]
  GI50: 4.62 µM
  TGI: > 100 µM
[39]
  GI50: 2.5 µM
  TGI: 7.71 µM
[40]
  GI50: 15.1 µM
  TGI: 45.2 µM
[41]
  GI50: 3.88 µM
  TGI: 15.9 µM
[42]
  GI50: 3.05 µM
  TGI: 27.3 µM
[43]
  GI50: 14.1 µM
  TGI: 44.7 µM
[44]
  GI50: 5.37 µM
  TGI: 19.3 µM
[45]
  GI50: 4.31 µM
  TGI: > 100 µM
[46]
  GI50: 10.1 µM
  TGI: 23.6 µM
[47]
  GI50: 2.35 µM
  TGI: 10.4 µM
[48]
  GI50: 3.29 µM
  TGI: 10.8 µM
[49]
  GI50: 12.6 µM
  TGI: 43.9 µM
[50]
  GI50: 2.03 µM
  TGI: 6.13 µM
[51]
  GI50: 10.2 µM
  TGI: 49.1 µM
[52]
  GI50: 2.07 µM
  TGI: 14.9 µM
[53]
  GI50: 5.32 µM
  TGI: 34.3 µM
[54]
  GI50: 7.85 µM
  TGI: 28.1 µM
[55]
  GI50: 4.39 µM
  TGI: > 100 µM
[56]
  GI50: 12.5 µM
  TGI: > 100 µM
[57]
  GI50: 4.03 µM
  TGI: 21.4 µM
[58]
  GI50: 13.3 µM
  TGI: 62.6 µM
